In US20230014181A1, “CULTURE SYSTEM AND METHODS FOR IMPROVED MODELING OF NEUROLOGICAL CONDITIONS” (Genentech, Inc., priority 2021, published 2023):
Like-named read-outs stand apart in the source and are kept apart here. Where a SMILES comes first, the peptide text is derived from it. [ ]: non-standard residue; d: D form. Nle = CCCC[C@H](N)C(=O)O

How the values were obtained:
[1] = tested on: human iPSC neurons and astrocytes treated with 5 μM sAβ42s; test: Focused small molecule screen, double culture (neuron, astrocyte), rescue from sAβ42s toxicity, high content imaging; assay type: cell-based; conditions: double culture, 5 μM sAβ42s; for percent rescue from sAβ42s toxicity at 6.25 µM / percent rescue from sAβ42s toxicity at 12.5 µM / percent rescue from sAβ42s toxicity at 25 µM: Homo sapiens, iPSC
Experimental: FIGS. 11A-11D show synapse % rescue versus MAP2% rescue (FIGS. 11A-11B) and beta III tubulin % rescue versus MAP2% rescue (FIGS. 11C-11D), in neurons and astrocytes (FIGS. 11A and 11C) or neurons, astrocytes, and microglia (FIGS. 11B and 11D) treated with 5 μM sAβ42s and small molecules from a focused screen of known neuroprotective agents at multiple concentrations (50 μM, 25 μM, 12.5 μM and 6.25 μM (double culture), 50 μM, 12.5 μM, 3.1 μM and 0.78 μM (triple culture). Small molecules that prevented toxicity in dendrites (MAP2), synapses (Synapsin 1/2), cell count (CUX2), or axons ([…]) at or above 30% were considered hits (red dotted line).
Neurons from both NSC lines were evaluated by immunofluorescence staining. Briefly, cells were fixed with 4% PFA and 4% sucrose at room temperature for 20 minutes using Bravo automation. Fixed cells were then washed 2 times with PBS using Biotek 406 microplate washer (Beckman Coulter), followed by permeabilization and blocking by incubation with a solution containing 1×PBS, 0.1% Triton X-100, 2% donkey serum, and 1% BSA at room temperature for 30 minutes. Blocking solution was removed and cells were incubated with primary antibodies in blocking solution overnight at 4° C. After washing 6 times with PBS on Biotek 406 cell plate washer (Beckman Coulter), cells were then incubated with fluorophore-conjugated secondary antibodies for 1 hour at room temperature in the dark to avoid photobleaching. Cells were then washed 6 more times in with PBS before imaging. Fluorescent images were captured using IN Cell 6000 confocal microscope (GE Healthcare Life Sciences). The image analysis was performed with IN Cell 6000 analysis software.
Prior to experimentation, media volume in wells containing neurons was equalized with liquid handling automation (Bravo) in order to ensure precise control of concentrations. All Aβ42 oligomers, anti-Aβ, small molecules, inflammatory cytokines were prepared at 10× concentration and added to Neuronal Culture Media at an appropriate volume. For the repeated dosing experiments, the media were refreshed 50% at each dosing first, before adding Aβ42 oligomers, and/or anti-Aβ antibody at the specified final concentration.
In double (neuron, astrocyte) and triple (neuron, astrocyte, microglia) cultures, each small molecule listed in Table 1 was tested in the AD model paradigm at up to four concentrations. Molecules that characterized ≥30% rescue in any of the four measurements of dendrites area (MAP2), synapses count (synapsin 1/2), or cell count (CUX2), or axon area (Beta III Tubulin; “BT3”)) were classified as hits (FIGS. 11A-11D, Table 2, and Table 3).

[2] = tested on: human iPSC neurons, astrocytes and microglia treated with 5 μM sAβ42s; test: Focused small molecule screen, triple culture (neuron, astrocyte, microglia), rescue from sAβ42s toxicity; assay type: cell-based; conditions: for percent rescue from sAβ42s toxicity at 0.78 µM / percent rescue from sAβ42s toxicity at 3.13 µM / percent rescue from sAβ42s toxicity at 12.5 µM: Homo sapiens, iPSC
Procedure, shortened: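 Human iPSC neuron-astrocyte co-cultures (8 weeks old), with or without added iPSC microglia (8,000 cells/well), were exposed to 5 μM sAβ42s together with compounds at up to four concentrations: 50–6.25 μM for double cultures and 50–0.78 μM for triple cultures. Rescue of MAP2, synapsin 1/2, CUX2 count or axon (NFL-H/βIII-tubulin) readouts of ≥30% was scored as a hit.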

## C=C[C@@]1(C)CC(=O)[C@]2(O)[C@@]3(C)[C@@H](O)CCC(C)(C)[C@@H]3[C@H](OC(=O)CCN(C)C)[C@H](OC(C)=O)[C@@]2(C)O1.Cl [NKH 477]
[1]; 6.25 μM compound
  % B3T rescue: 38%
  % Cux2 rescue: 21%
  % MAP2 rescue: 39%
  % Synapse rescue: 7%
[1]; 12.5 μM compound
  % B3T rescue: 38%
  % Cux2 rescue: 24%
  % MAP2 rescue: 45%
  % Synapse rescue: 5%
[1]; 25 μM compound
  % B3T rescue: 35%
  % Cux2 rescue: 21%
  % MAP2 rescue: 43%
  % Synapse rescue: −4%
[1]; 50 μM compound
  % B3T rescue: 38%
  % Cux2 rescue: 45%
  % MAP2 rescue: 44%
  % Synapse rescue: −5%
[2]; 3.13 μM compound
  % B3T rescue: 42%
  % MAP2 rescue: 17%
  % Synapse rescue: 12%
[2]; 12.50 μM compound
  % B3T rescue: 49%
  % MAP2 rescue: 9%
  % Synapse rescue: 8%
[2]; 50.00 μM compound
  % B3T rescue: 81%
  % MAP2 rescue: 53%
  % Synapse rescue: 38%

## CN1CCN(CCOc2cc(OC3CCOCC3)c3c(Nc4c(Cl)ccc5c4OCO5)ncnc3c2)CC1 [Saracatinib (AZD0530), Saracatinib]
[1]; 6.25 μM compound, read-out: % B3T rescue
  percent rescue from sAβ42s toxicity at 6.25 µM: 62%
[1]; 6.25 μM compound, read-out: % Cux2 rescue
  percent rescue from sAβ42s toxicity at 6.25 µM: 7%
[1]; 6.25 μM compound, read-out: % MAP2 rescue
  percent rescue from sAβ42s toxicity at 6.25 µM: 61%
[1]; 6.25 μM compound, read-out: % Synapse rescue
  percent rescue from sAβ42s toxicity at 6.25 µM: 32%
[1]; 12.5 μM compound, read-out: % B3T rescue
  percent rescue from sAβ42s toxicity at 12.5 µM: 56%
[1]; 12.5 μM compound, read-out: % Cux2 rescue
  percent rescue from sAβ42s toxicity at 12.5 µM: 13%
[1]; 12.5 μM compound, read-out: % MAP2 rescue
  percent rescue from sAβ42s toxicity at 12.5 µM: 71%
[1]; 12.5 μM compound, read-out: % Synapse rescue
  percent rescue from sAβ42s toxicity at 12.5 µM: 34%
[1]; 25 μM compound, read-out: % B3T rescue
  percent rescue from sAβ42s toxicity at 25 µM: 30%
[1]; 25 μM compound, read-out: % Cux2 rescue
  percent rescue from sAβ42s toxicity at 25 µM: 18%
[1]; 25 μM compound, read-out: % MAP2 rescue
  percent rescue from sAβ42s toxicity at 25 µM: 65%
[1]; 25 μM compound, read-out: % Synapse rescue
  percent rescue from sAβ42s toxicity at 25 µM: 10%
[2]; 0.78 μM compound, read-out: % B3T rescue
  percent rescue from sAβ42s toxicity at 0.78 µM: 99%
[2]; 0.78 μM compound, read-out: % MAP2 rescue
  percent rescue from sAβ42s toxicity at 0.78 µM: 72%
[2]; 0.78 μM compound, read-out: % Synapse rescue
  percent rescue from sAβ42s toxicity at 0.78 µM: 65%
[2]; 3.13 μM compound, read-out: % B3T rescue
  percent rescue from sAβ42s toxicity at 3.13 µM: 99%
[2]; 3.13 μM compound, read-out: % MAP2 rescue
  percent rescue from sAβ42s toxicity at 3.13 µM: 73%
[2]; 3.13 μM compound, read-out: % Synapse rescue
  percent rescue from sAβ42s toxicity at 3.13 µM: 65%
[2]; 12.50 μM compound, read-out: % B3T rescue
  percent rescue from sAβ42s toxicity at 12.5 µM: 35%
[2]; 12.50 μM compound, read-out: % MAP2 rescue
  percent rescue from sAβ42s toxicity at 12.5 µM: -12%
[2]; 12.50 μM compound, read-out: % Synapse rescue
  percent rescue from sAβ42s toxicity at 12.5 µM: -2%

## O=C1NC(=O)C(c2ccccc2[N+](=O)[O-])=C1Nc1ccc(O)c(Cl)c1 [SB 415286]
[1]; 50 μM compound
  % B3T rescue: 39%
  % Cux2 rescue: −13%
  % MAP2 rescue: 19%
  % Synapse rescue: 12%
[2]; 50.00 μM compound
  % B3T rescue: 78%
  % MAP2 rescue: 42%
  % Synapse rescue: 40%

## CC1=NN(c2ccc(C(=O)O)cc2)C(=O)/C1=C\c1ccc(-c2cc(C)c(C)cc2[N+](=O)[O-])o1 [C 646]
[1]; 50 μM compound
  % B3T rescue: 49%
  % Cux2 rescue: 25%
  % MAP2 rescue: 54%
  % Synapse rescue: 19%
[2]; 0.78 μM compound
  % B3T rescue: 27%
  % MAP2 rescue: 37%
  % Synapse rescue: 28%
[2]; 12.50 μM compound
  % B3T rescue: 42%
  % MAP2 rescue: 41%
  % Synapse rescue: 38%
[2]; 50.00 μM compound
  % B3T rescue: 53%
  % MAP2 rescue: 37%
  % Synapse rescue: 39%

## CCCC[C@@H](C=O)NC(=O)[C@H](CC(C)C)NC(=O)[C@H](CC(C)C)NC(C)=O [Ac-Leu-Leu-Nle-CHO] (Ac-Leu-Leu-[Nle]-aldehyde)
[1]; 6.25 μM compound
  % B3T rescue: 14%
  % Cux2 rescue: 85%
  % MAP2 rescue: 31%
  % Synapse rescue: 0%
[1]; 12.5 μM compound
  % B3T rescue: 0%
  % Cux2 rescue: 87%
  % MAP2 rescue: 18%
  % Synapse rescue: −4%
[1]; 25 μM compound
  % B3T rescue: −11%
  % Cux2 rescue: 87%
  % MAP2 rescue: 20%
  % Synapse rescue: −5%
[1]; 50 μM compound
  % B3T rescue: 0%
  % Cux2 rescue: 78%
  % MAP2 rescue: 23%
  % Synapse rescue: 2%
[2]; 0.78 μM compound
  % B3T rescue: 38%
  % MAP2 rescue: 21%
  % Synapse rescue: 14%
[2]; 3.13 μM compound
  % B3T rescue: 57%
  % MAP2 rescue: 55%
  % Synapse rescue: 38%
[2]; 12.50 μM compound
  % B3T rescue: 44%
  % MAP2 rescue: 48%
  % Synapse rescue: 18%

## O=C1NC(=O)c2c1c1c3ccccc3n3c1c1c2c2ccccc2n1C1CCC3O1 [SB 218078]
[1]; 50 μM compound
  % B3T rescue: 72%
  % Cux2 rescue: −39%
  % MAP2 rescue: −92%
  % Synapse rescue: −15%
[2]; 0.78 μM compound
  % B3T rescue: 38%
  % MAP2 rescue: 10%
  % Synapse rescue: 14%
[2]; 50.00 μM compound
  % B3T rescue: −11%
  % MAP2 rescue: 53%
  % Synapse rescue: 19%
